Laboratory results published in US5183821A, “Method for treating leukemias using N-(2-dimethylaminoethyl)-3-amino-1,8-naphthalimide for treating leukemias and solid tumors” (priority 1991, dated 1993).
“Also recorded” adds a separate entry of the source.

Key:
M5076 ovarian carcinoma = assay: NCI screen, M5076 ovarian carcinoma, intraperitoneal (summary); type: in vivo, Mouse; details: for Antitumor activity in words: M5076
Source text: (§1) The activity of the compound has been evaluated by experiments carried out under the auspices of the Division of Cancer Treatment, National Cancer Institute, employing techniques considered to be reliable indicators of chemotherapeutic utility in the treatment of forms of cancer in human patients. The details of the methodology employed in the reported experiments may be determined with reference to established NCI screening methods. In the experiments conducted by the NCI, evaluation of activity is made on the basis of appropriate parameters, such as median survival time (MST) or change in average tumor diameter (CATD)in ocular micrometer units (OMU).

Lewis lung carcinoma = assay: NCI screen, Lewis lung carcinoma, intravenous (summary); type: in vivo, Mouse; details: for Antitumor activity in words: Lewis lung carcinoma
Source text: as §1

L-1210 Lymphoid leukemia [1] = assay: Experiment 4: L-1210 s.c., 10^5 cells, acid diluted with saline, male; type: in vivo, Mouse CD2 F1 (CDF1)
Source text: (§2) Host: Mouse CD2 F1 (CDF1)
(§3) Tumor: L-1210 Lymphoid leukemia
(§4) Inoculum Site: Subcutaneous
Vehicle: acid diluted with saline
(§5) Treatment schedule (relative to tumor inoculation day): daily on days 1-9
(§6) Day of evaluation (relative to tumor inoculation day): 30
(§7) Parameter: Median survival time (MST) in days
(§8) NCI minimal activity criteria: Percent T/C≥125
(§9) Percent T/C: Ratio of test (T) evaluation to control (C) evaluation expressed as a percentage

L-1210 Lymphoid leukemia [2] = assay: Experiment 5: L-1210 i.p., 10^5 cells, acid diluted with saline, female; type: in vivo, Mouse CD2 F1 (CDF1)
Source text: as §2, §3
(§10) Inoculum Site: Intraperitoneal
(§11) Vehicle: Acid diluted with saline
as §5, §6, §7, §8, §9

L-1210 Lymphoid leukemia [3] = assay: Experiment 8: L-1210 s.c., 10^6 cells, acid diluted with saline, female; type: in vivo, Mouse CD2 F (CDF1)
Source text: as §3, §4, §11
Treatment schedule (relative to tumor inoculation day) daily on days 1-9
as §6, §7, §8, §9

B16 Melanocarcinoma [4] = assay: Experiment 16: B16 i.p., saline with Tween-80, male; type: in vivo, Mouse B6 C3 F1
Source text: (§12) Tumor: B16 Melanocarcinoma
as §10
(§13) Tissue: Homogenate (or brei), tumor
(§14) Vehicle: Saline with Tween-80
as §5
(§15) Day of evaluation (relative to tumor inoculation day): 60
as §7, §8, §9

B16 Melanocarcinoma [5] = assay: Experiment 19: B16 i.p., acid diluted with saline, female; type: in vivo, Mouse B6 D2 F1
Source text: as §12, §10, §13, §11
Treatment schedule: (relative to tumor inoculation day): daily on days 1-9
as §15, §7, §8, §9

B16 Melanocarcinoma [6] = assay: Experiment 20: B16 i.p., acid diluted with saline, female; type: in vivo, Mouse B6 C3 F1
Source text: as §12, §10, §13, §11, §5, §15, §7, §8, §9

Colon 38 = assay: Experiment 12 (second): Colon 38 s.c., saline with Tween-80, female; type: in vivo, Mouse B6 D2 F1 (BDF1)
Source text: Host: Mouse B6 D2 F1 (BDF1)
as §4, §14
Treatment schedule (relative to tumor inoculation day): days 2 and 9
Day of evaluation (relative to tumor inoculation day): 20
Parameter: Median tumor weight (MTW) estimated from tumor diameter
NCI minimal activity criteria: Percent T/C≤42
as §9

CN(C)CCN1C(=O)c2cccc3cc(N)cc(c23)C1=O [Example 9, 1H-Benz[de]isoquinoline-1,3(2H)-dione, 5-amino-2-[2-(dimethylamino)ethyl]]
Antitumor activity in words (M5076 ovarian carcinoma; listed as BIDA): Activity was seen
Antitumor activity in words (M5076 ovarian carcinoma; listed as the compound): activity substantially greater than the level considered to be of minimal interest; also recorded: exceeded the minimal level of activity for clinical interest
Table II evaluation (M5076 ovarian carcinoma; mean survival time, 15 tests, full wrapped cell: Activity Substantially greater than the minimal): Activity
Antitumor activity in words (Lewis lung carcinoma; listed as BIDA): not active
Antitumor activity in words (Lewis lung carcinoma; listed as the compound): not observed to be effective
Table II evaluation (Lewis lung carcinoma; median survival time, 12 tests, full wrapped cell: Activity not confirmed): Activity not
Median survival time (MST) (L-1210 Lymphoid leukemia [1]; 0.00 mg/kg [sic] i.p.): 8.9 days
Percent T/C (L-1210 Lymphoid leukemia [1]; 0.00 mg/kg [sic] i.p.): 101%
Median survival time (MST) (L-1210 Lymphoid leukemia [1]; 5.00 mg/kg i.p.): 10.4 days
Percent T/C (L-1210 Lymphoid leukemia [1]; 5.00 mg/kg i.p.): 118%
Median survival time (MST) (L-1210 Lymphoid leukemia [1]; 7.00 mg/kg i.p.): 10.7 days
Percent T/C (L-1210 Lymphoid leukemia [1]; 7.00 mg/kg i.p.): 121%
Median survival time (MST) (L-1210 Lymphoid leukemia [1]; 10.00 mg/kg i.p.): 12.0 days
Percent T/C (L-1210 Lymphoid leukemia [1]; 10.00 mg/kg i.p.): 136%
Median survival time (MST) (L-1210 Lymphoid leukemia [1]; 16.00 mg/kg i.p.): 15.3 days
Percent T/C (L-1210 Lymphoid leukemia [1]; 16.00 mg/kg i.p.): 173%
Median survival time (MST) (L-1210 Lymphoid leukemia [1]; 24.00 mg/kg i.p.): 11.0 days
Percent T/C (L-1210 Lymphoid leukemia [1]; 24.00 mg/kg i.p.): 125%
Median survival time (MST) (L-1210 Lymphoid leukemia [2]; 5.00 mg/kg i.p.): 11.0 days
Percent T/C (L-1210 Lymphoid leukemia [2]; 5.00 mg/kg i.p.): 113%
Median survival time (MST) (L-1210 Lymphoid leukemia [2]; 7.00 mg/kg i.p.): 11.1 days
Percent T/C (L-1210 Lymphoid leukemia [2]; 7.00 mg/kg i.p.): 114%
Median survival time (MST) (L-1210 Lymphoid leukemia [2]; 10.00 mg/kg i.p.): 11.4 days
Percent T/C (L-1210 Lymphoid leukemia [2]; 10.00 mg/kg i.p.): 117%
Median survival time (MST) (L-1210 Lymphoid leukemia [2]; 16.00 mg/kg i.p.): 17.0 days
Percent T/C (L-1210 Lymphoid leukemia [2]; 16.00 mg/kg i.p.): 175%
Median survival time (MST) (L-1210 Lymphoid leukemia [2]; 24.00 mg/kg i.p.): 13.3 days
Percent T/C (L-1210 Lymphoid leukemia [2]; 24.00 mg/kg i.p.): 137%
Median survival time (MST) (L-1210 Lymphoid leukemia [3]; 5.00 mg/kg i.p.): 9.0 days
Percent T/C (L-1210 Lymphoid leukemia [3]; 5.00 mg/kg i.p.): 105%
Median survival time (MST) (L-1210 Lymphoid leukemia [3]; 7.00 mg/kg i.p.): 9.8 days
Percent T/C (L-1210 Lymphoid leukemia [3]; 7.00 mg/kg i.p.): 110%
Median survival time (MST) (L-1210 Lymphoid leukemia [3]; 10.00 mg/kg i.p.): 10.7 days
Percent T/C (L-1210 Lymphoid leukemia [3]; 10.00 mg/kg i.p.): 125%
Median survival time (MST) (L-1210 Lymphoid leukemia [3]; 16.00 mg/kg i.p.): 12.3 days
Percent T/C (L-1210 Lymphoid leukemia [3]; 16.00 mg/kg i.p.): 144%
Median survival time (MST) (L-1210 Lymphoid leukemia [3]; 24.00 mg/kg i.p.): 31.3 days
Percent T/C (L-1210 Lymphoid leukemia [3]; 24.00 mg/kg i.p.): 132%
Median survival time (MST) (B16 Melanocarcinoma [4]; 1.00 mg/kg i.p.): 17.6 days
Percent T/C (B16 Melanocarcinoma [4]; 1.00 mg/kg i.p.): 102%
Median survival time (MST) (B16 Melanocarcinoma [4]; 2.00 mg/kg i.p.): 17.3 days
Percent T/C (B16 Melanocarcinoma [4]; 2.00 mg/kg i.p.): 101%
Median survival time (MST) (B16 Melanocarcinoma [4]; 4.00 mg/kg i.p.): 19.3 days
Percent T/C (B16 Melanocarcinoma [4]; 4.00 mg/kg i.p.): 112%
Median survival time (MST) (B16 Melanocarcinoma [4]; 8.00 mg/kg i.p.): 20.3 days
Percent T/C (B16 Melanocarcinoma [4]; 8.00 mg/kg i.p.): 118%
Median survival time (MST) (B16 Melanocarcinoma [4]; 16.00 mg/kg i.p.): 35.0 days
Percent T/C (B16 Melanocarcinoma [4]; 16.00 mg/kg i.p.): 87%
Median survival time (MST) (B16 Melanocarcinoma [4]; 32.00 mg/kg i.p.): 8.3 days
Median survival time (MST) (B16 Melanocarcinoma [5]; 1.00 mg/kg i.p.): 19.8 days
Percent T/C (B16 Melanocarcinoma [5]; 1.00 mg/kg i.p.): 99%
Median survival time (MST) (B16 Melanocarcinoma [5]; 2.00 mg/kg i.p.): 21.9 days
Percent T/C (B16 Melanocarcinoma [5]; 2.00 mg/kg i.p.): 110%
Median survival time (MST) (B16 Melanocarcinoma [5]; 4.00 mg/kg i.p.): 22.8 days
Percent T/C (B16 Melanocarcinoma [5]; 4.00 mg/kg i.p.): 114%
Median survival time (MST) (B16 Melanocarcinoma [5]; 8.00 mg/kg i.p.): 24.3 days
Percent T/C (B16 Melanocarcinoma [5]; 8.00 mg/kg i.p.): 122%
Median survival time (MST) (B16 Melanocarcinoma [5]; 16.00 mg/kg i.p.): 31.0 days
Percent T/C (B16 Melanocarcinoma [5]; 16.00 mg/kg i.p.): 155%
Median survival time (MST) (B16 Melanocarcinoma [5]; 32.00 mg/kg i.p.): 6.8 days
Median survival time (MST) (B16 Melanocarcinoma [6]; 0.00 mg/kg [sic] i.p.): 18.3 days
Percent T/C (B16 Melanocarcinoma [6]; 0.00 mg/kg [sic] i.p.): 97%
Median survival time (MST) (B16 Melanocarcinoma [6]; 2.00 mg/kg i.p.): 18.3 days
Percent T/C (B16 Melanocarcinoma [6]; 2.00 mg/kg i.p.): 97%
Median survival time (MST) (B16 Melanocarcinoma [6]; 4.00 mg/kg i.p.): 20.0 days
Percent T/C (B16 Melanocarcinoma [6]; 4.00 mg/kg i.p.): 106%
Median survival time (MST) (B16 Melanocarcinoma [6]; 8.00 mg/kg i.p.): 20.9 days
Percent T/C (B16 Melanocarcinoma [6]; 8.00 mg/kg i.p.): 111%
Median survival time (MST) (B16 Melanocarcinoma [6]; 16.00 mg/kg i.p.): 20.8 days
Percent T/C (B16 Melanocarcinoma [6]; 16.00 mg/kg i.p.): 110%
Median survival time (MST) (B16 Melanocarcinoma [6]; 32.00 mg/kg i.p.): 6.7 days
Median tumor weight (MTW) (Colon 38; 8.00 mg/kg i.p.): 1100
Percent T/C (Colon 38; 8.00 mg/kg i.p.): 88%
Median tumor weight (MTW) (Colon 38; 16.00 mg/kg i.p.): 1256
Percent T/C (Colon 38; 16.00 mg/kg i.p.): 100%
Median tumor weight (MTW) (Colon 38; 32.00 mg/kg i.p.): 1005
Percent T/C (Colon 38; 32.00 mg/kg i.p.): 80%
Median tumor weight (MTW) (Colon 38; 64.00 mg/kg i.p.): 699
Percent T/C (Colon 38; 64.00 mg/kg i.p.): 55%
Median tumor weight (MTW) (Colon 38; 128.00 mg/kg i.p.): Deaths before evaluation
